According to patent US8975241B2, “Composition for treating and preventing obesity including high water-soluble 2-hydroxypropyl-betacyclodextrin as effective component” (Song Ho Biomed Co., Ltd., priority 2009, dated 2015):

Assays:
Format in all cases: in vivo
high fat diet-mouse = assay: Change in body weight by oral administration in high fat diet-mouse
Protocol: Male C57BL/6J mice (Five age of the week, KRIBB, Korea) were accommodated for 1 week. And then, the weights of the animals were equally divided into 5 animals as one group. While a high fat diet (60% fat kcal) was provided, sterilized distilled water and HPBCDs with 10, 20, and 40% (W/V) were orally administered at three times (Morning, Afternoon, Evening) a day for 5 days in 0.2 ml per 20 g body weight of a mouse at the same time. A change in body weight was measured to all of the animals during the test at one time per day; the fixed amount of feeds was provided at the day of measuring body weight, and then an average amount of intake per an animal (g/mouse/day) was calculated by measuring a residual amount of feeds at the next day.
A body weight was measured by using the same conditions as the above <Example 3>, except that BCDs with 10 and 20% (W/V) concentrations were used instead of HPBCDs with 10, 20, and 40% (W/V) concentrations.
A change in body weight was measured during the test using α-CD instead of HPBCD in the same method as the above <Example 3>.

[1] = tested on: mouse model with obesity caused by a high fat diet; assay: Amount of feed intake by autonomically drinking in mouse model with obesity caused by high fat diet; details: for Amount of Feed Intake: per group
Protocol: Male C57BL/6J mice (Five age of the week, KRIBB, Korea) were accommodated for 1 week, and then were induced with obesity by giving a high fat diet (60% fat kcal, Research Diets) for 15 days. The weights of the animals that were induced with obesity were equally divided into 3 animals as one group. And then, the solvent-control group drank sterilized distilled water, autonomically. Hydroxypropyl-β-cyclodextrin (HPBCD) was dissolved in sterilized distilled water to be 10, 15, and 20% (W/V) concentrations for drinking autonomically. A change in body weight was daily measured to all of animals during the test; the fixed amount of feeds was provided at the day of measuring body weight, and then an amount of intake per a group (g/day) was calculated by measuring a residual amount of feeds at the next day.

normal mouse (ICR) = assay: Oral glucose tolerance test; details: for Rate of Suppression (%): vs control group
Source text: An oral glucose tolerance test system is to comprehensively predict whether or not a sample has an effect on suppressing a sharp increase of blood sugar induced by intaking glucose after an oral-administration of the sample to a mouse, activities of suppressing glycolysis/glucose absorption, etc.
A normal mouse [ICR, 6W, Coretech Inc., Korea] was accommodated for 1 week, and then approximately 18˜20 g female with 7 age of the week mouse was used. 6 mice were assigned for one experimental group and starved for 16 hours to use. Hydroxypropyl-β-cyclodextrin (HPBCD) was dissolved in sterilized distilled water to be 20% (W/V) concentration, and then oral-administered in 0.2 mL per 20 g body weight of a mouse. And then, the glucose dissolved in physiological saline was oral-administered to mice in a liquid amount of 10 ml/kg to inject 2 g/kg after 15, 30, 60, and 90 minutes, respectively. The levels of blood sugars were measured just before administering glucose (0 hour), and at 15, 60, and 120 minutes after administering glucose. Blood for measuring blood sugar was collected from orbital venous of the mouse using a capillary tube. The blood sugar in the collected blood was measured using a measuring instrument, […] ALPHA (Boehringer mannheim Co.). The same amount of sterilized distilled water was administered for the control group.

[2] = 20% (W/V) oral (−)15 min. before glucose 2 g/kg
[3] = 20% (W/V) oral (−)30 min. before glucose 2 g/kg
[4] = 20% (W/V) oral (−)60 min. before glucose 2 g/kg
[5] = 20% (W/V) oral (−)90 min. before glucose 2 g/kg

2-hydroxypropyl-β-cyclodextrin [HPBCD]
Body weight as percent of initial body weight (high fat diet-mouse; 10% (w/v) oral three times a day, 0 Day): 100.0 ± 0.0%
Body weight as percent of initial body weight (high fat diet-mouse; 10% (w/v) oral three times a day, 1 Day): 99.3 ± 0.9 %
Body weight as percent of initial body weight (high fat diet-mouse; 10% (w/v) oral three times a day, 2 Day): 98.5 ± 1.3 %
Body weight as percent of initial body weight (high fat diet-mouse; 10% (w/v) oral three times a day, 3 Day): 98.4 ± 1.2 %
Body weight as percent of initial body weight (high fat diet-mouse; 10% (w/v) oral three times a day, 4 Day): 98.3 ± 1.2 %
Body weight as percent of initial body weight (high fat diet-mouse; 10% (w/v) oral three times a day, 5 Day): 98.7 ± 2.0 %
body weight as compared with the control group (high fat diet-mouse; 10, 20, 40% (W/V) oral): decreased depending on the concentrations
body weight as compared with the initial body weight (high fat diet-mouse; 10, 20, 40% (W/V) oral): significantly decreased
Body weight as percent of initial body weight (high fat diet-mouse; 20% (w/v) oral three times a day, 0 Day): 100.0 ± 0.0%
Body weight as percent of initial body weight (high fat diet-mouse; 20% (w/v) oral three times a day, 1 Day): 97.1 ± 1.0 %
Body weight as percent of initial body weight (high fat diet-mouse; 20% (w/v) oral three times a day, 2 Day): 95.6 ± 1.1 %
Body weight as percent of initial body weight (high fat diet-mouse; 20% (w/v) oral three times a day, 3 Day): 95.8 ± 1.3 %
Body weight as percent of initial body weight (high fat diet-mouse; 20% (w/v) oral three times a day, 4 Day): 96.6 ± 1.0 %
Body weight as percent of initial body weight (high fat diet-mouse; 20% (w/v) oral three times a day, 5 Day): 95.7 ± 1.5 %
Body weight as percent of initial body weight (high fat diet-mouse; 40% (w/v) oral three times a day, 0 Day): 100.0 ± 0.0%
Body weight as percent of initial body weight (high fat diet-mouse; 40% (w/v) oral three times a day, 1 Day): 95.0 ± 2.2 %
Body weight as percent of initial body weight (high fat diet-mouse; 40% (w/v) oral three times a day, 2 Day): 93.1 ± 3.4 %
Body weight as percent of initial body weight (high fat diet-mouse; 40% (w/v) oral three times a day, 3 Day): 93.5 ± 3.4 %
Body weight as percent of initial body weight (high fat diet-mouse; 40% (w/v) oral three times a day, 4 Day): 94.3 ± 2.9 %
Body weight as percent of initial body weight (high fat diet-mouse; 40% (w/v) oral three times a day, 5 Day): 94.1 ± 1.9 %
Amount of Feed Intake ([1]; 10% (w/v) in drinking water, 1 Day): 3.9 g/day
Amount of Feed Intake ([1]; 10% (w/v) in drinking water, 2 Day): 3.9 g/day
Amount of Feed Intake ([1]; 10% (w/v) in drinking water, 3 Day): 2.7 g/day
appetite / dietary intake ([1]; 10, 15, 20% (W/V) autonomically drinking): effect on suppressing appetite
Amount of Feed Intake ([1]; 15% (w/v) in drinking water, 1 Day): 4.1 g/day
Amount of Feed Intake ([1]; 15% (w/v) in drinking water, 2 Day): 4.5 g/day
Amount of Feed Intake ([1]; 15% (w/v) in drinking water, 3 Day): 4.0 g/day
Amount of Feed Intake ([1]; 20% (w/v) in drinking water, 1 Day): 4.2 g/day
Amount of Feed Intake ([1]; 20% (w/v) in drinking water, 2 Day): 4.2 g/day
Amount of Feed Intake ([1]; 20% (w/v) in drinking water, 3 Day): 2.6 g/day
Increasing Amount of Blood Sugar (15 min.~0 hour) (normal mouse (ICR); [2]): 190.0 mg/dL
Level of Blood Sugar Before and After Administration of D-glucose (mg/dl), 0 Hour (normal mouse (ICR); [2]): 74.8 mg/dL
Level of Blood Sugar Before and After Administration of D-glucose (mg/dl), 15 min. (normal mouse (ICR); [2]): 264.8 mg/dL
Rate of Suppression (%) (normal mouse (ICR); [2]): 19.7%
Increasing Amount of Blood Sugar (15 min.~0 hour) (normal mouse (ICR); [3]): 191.0 mg/dL
Level of Blood Sugar Before and After Administration of D-glucose (mg/dl), 0 Hour (normal mouse (ICR); [3]): 83.3 mg/dL
Level of Blood Sugar Before and After Administration of D-glucose (mg/dl), 15 min. (normal mouse (ICR); [3]): 274.3 mg/dL
Rate of Suppression (%) (normal mouse (ICR); [3]): 19.3%
Increasing Amount of Blood Sugar (15 min.~0 hour) (normal mouse (ICR); [4]): 184.5 mg/dL
Level of Blood Sugar Before and After Administration of D-glucose (mg/dl), 0 Hour (normal mouse (ICR); [4]): 83.3 mg/dL
Level of Blood Sugar Before and After Administration of D-glucose (mg/dl), 15 min. (normal mouse (ICR); [4]): 267.8 mg/dL
Rate of Suppression (%) (normal mouse (ICR); [4]): 22.0%
Increasing Amount of Blood Sugar (15 min.~0 hour) (normal mouse (ICR); [5]): 180.7 mg/dL
Level of Blood Sugar Before and After Administration of D-glucose (mg/dl), 0 Hour (normal mouse (ICR); [5]): 78.3 mg/dL
Level of Blood Sugar Before and After Administration of D-glucose (mg/dl), 15 min. (normal mouse (ICR); [5]): 259.0 mg/dL
Rate of Suppression (%) (normal mouse (ICR); [5]): 23.7%
blood sugar caused by intaking glucose suppressed as compared with the control group (normal mouse (ICR); oral, all pre-treatment times): 19˜24%
